Test results from paper PMC5218480 (PLoS ONE, 2017).

System: MV-4-11 cells
Assay: Gene expression microarray analysis (Affymetrix PrimeView) and GSEA
Type: cell-based, human
Set-up: RFU PODN (11730768_x_at) / Fold change /veh PODN (11730768_x_at) / RFU LINC00158 (11744669_a_at) / Fold change /veh LINC00158 (11744669_a_at) / RFU DUSP10 (11751237_a_at) / Fold change /veh DUSP10 (11751237_a_at) / RFU ID3 (11757404_x_at) / Fold change /veh ID3 (11757404_x_at) / RFU PLEKHG5 (11737974_s_at) / Fold change /veh PLEKHG5 (11737974_s_at) / RFU LRRC4B (11730491_at) / Fold change /veh LRRC4B (11730491_at) / RFU GIMAP4 (11747438_a_at) / Fold change /veh GIMAP4 (11747438_a_at) / RFU KRT8 (11758183_x_at) / Fold change /veh KRT8 (11758183_x_at) / RFU CNN1 (11734310_a_at) / Fold change /veh CNN1 (11734310_a_at) / RFU VPS37D (11726825_at) / Fold change /veh VPS37D (11726825_at) / RFU C10orf10 (11716522_x_at) / Fold change /veh C10orf10 (11716522_x_at) / RFU KIR2DL2 /// KIR2DL4 /// KIR2DL5A /// KIR2DL5B /// KIR2DS1 /// KIR2DS2 /// KIR2DS3 /// KIR2DS4 /// KIR3DL3 /// KIR3DL3 /// KIR3DS1 (11738374_at) / Fold change /veh KIR2DL2 /// KIR2DL4 /// KIR2DL5A /// KIR2DL5B /// KIR2DS1 /// KIR2DS2 /// KIR2DS3 /// KIR2DS4 /// KIR3DL3 /// KIR3DL3 /// KIR3DS1 (11738374_at) / RFU C1QL1 (11718748_at) / Fold change /veh C1QL1 (11718748_at) / RFU TMPRSS4 (11747572_a_at) / Fold change /veh TMPRSS4 (11747572_a_at) / RFU HAMP (11756126_x_at) / Fold change /veh HAMP (11756126_x_at) / RFU RNFT2 (11725882_a_at) / Fold change /veh RNFT2 (11725882_a_at) / RFU NR4A2 (11747474_a_at) / Fold change /veh NR4A2 (11747474_a_at) / RFU ABCC12 (11746883_a_at) / Fold change /veh ABCC12 (11746883_a_at) / RFU TMEM136 (11760407_x_at) / Fold change /veh TMEM136 (11760407_x_at) / RFU CLDN22 /// WWC2 (11732394_at) / Fold change /veh CLDN22 /// WWC2 (11732394_at) / RFU HLA-DPB1 (11760878_x_at) / Fold change /veh HLA-DPB1 (11760878_x_at) / RFU SPINT1 (11716480_a_at) / Fold change /veh SPINT1 (11716480_a_at) / RFU GAP43 (11754022_s_at) / Fold change /veh GAP43 (11754022_s_at) / RFU A4GNT (11735810_at) / Fold change /veh A4GNT (11735810_at) / RFU PRB3 (11715151_x_at) / Fold change /veh PRB3 (11715151_x_at) / RFU TUBB4B (11761932_at) / Fold change /veh TUBB4B (11761932_at) / RFU CAPN14 (11732068_a_at) / Fold change /veh CAPN14 (11732068_a_at) / RFU TMCC2 (11721928_a_at) / Fold change /veh TMCC2 (11721928_a_at) / RFU IRGQ (11745062_a_at) / Fold change /veh IRGQ (11745062_a_at) / RFU FAM174B (11720279_a_at) / Fold change /veh FAM174B (11720279_a_at) / RFU TMPRSS4 (11748680_a_at) / Fold change /veh TMPRSS4 (11748680_a_at) / RFU FAM212B (11763350_a_at) / Fold change /veh FAM212B (11763350_a_at) / RFU PLEKHG5 (11743358_a_at) / Fold change /veh PLEKHG5 (11743358_a_at) / RFU ZSCAN30 (11745921_a_at) / Fold change /veh ZSCAN30 (11745921_a_at) / RFU CMKLR1 (11741424_a_at) / Fold change /veh CMKLR1 (11741424_a_at) / RFU LOC101060620 /// MAPK8IP1 (11723275_at) / Fold change /veh LOC101060620 /// MAPK8IP1 (11723275_at) / RFU SPTSSB (11747773_x_at) / Fold change /veh SPTSSB (11747773_x_at) / RFU PRSS12 (11739890_at) / Fold change /veh PRSS12 (11739890_at) / RFU BIN1 (11741810_x_at) / Fold change /veh BIN1 (11741810_x_at) / RFU WNT11 (11732464_a_at) / Fold change /veh WNT11 (11732464_a_at) / RFU C10orf10 (11716521_a_at) / Fold change /veh C10orf10 (11716521_a_at) / RFU C5orf56 (11738089_at) / Fold change /veh C5orf56 (11738089_at) / RFU CYB561 (11721691_x_at) / Fold change /veh CYB561 (11721691_x_at) / RFU ANKRD19P (11752326_a_at) / Fold change /veh ANKRD19P (11752326_a_at) / RFU OR2T12 /// OR2T33 /// OR2T8 (11738714_s_at) / Fold change /veh OR2T12 /// OR2T33 /// OR2T8 (11738714_s_at) / RFU VCAN (11748164_a_at) / Fold change /veh VCAN (11748164_a_at) / RFU JSRP1 (11732532_at) / Fold change /veh JSRP1 (11732532_at) / RFU KRTAP10-11 (11738290_x_at) / Fold change /veh KRTAP10-11 (11738290_x_at) / RFU MYO3A (11730013_a_at) / Fold change /veh MYO3A (11730013_a_at) / RFU EBF3 (11725865_a_at) / Fold change /veh EBF3 (11725865_a_at) / RFU CAMK2N1 (11719241_x_at) / Fold change /veh CAMK2N1 (11719241_x_at) / RFU C5orf56 (11738088_a_at) / Fold change /veh C5orf56 (11738088_a_at) / RFU OLFML3 (11715873_a_at) / Fold change /veh OLFML3 (11715873_a_at) / RFU LOC100653217 /// NTM (11731650_a_at) / Fold change /veh LOC100653217 /// NTM (11731650_a_at) / RFU MAPK11 (11762145_a_at) / Fold change /veh MAPK11 (11762145_a_at) / RFU FIZ1 (11724087_x_at) / Fold change /veh FIZ1 (11724087_x_at) / RFU OASL (11726364_x_at) / Fold change /veh OASL (11726364_x_at) / RFU SOX15 (11748057_x_at) / Fold change /veh SOX15 (11748057_x_at) / RFU CD79A (11719716_a_at) / Fold change /veh CD79A (11719716_a_at) / RFU HIST1H1D (11736915_at) / Fold change /veh HIST1H1D (11736915_at) / RFU CASKIN2 (11723855_a_at) / Fold change /veh CASKIN2 (11723855_a_at) / RFU LOC730098 (11760151_x_at) / Fold change /veh LOC730098 (11760151_x_at) / RFU OR4N2 (11742367_at) / Fold change /veh OR4N2 (11742367_at) / RFU PRRT2 (11749266_a_at) / Fold change /veh PRRT2 (11749266_a_at) / RFU SNX32 (11753110_a_at) / Fold change /veh SNX32 (11753110_a_at) / RFU CDHR5 (11726645_a_at) / Fold change /veh CDHR5 (11726645_a_at) / RFU RCAN1 (11760418_a_at) / Fold change /veh RCAN1 (11760418_a_at) / RFU FAM167A (11723789_a_at) / Fold change /veh FAM167A (11723789_a_at) / RFU FAM26E (11764081_at) / Fold change /veh FAM26E (11764081_at) / RFU ISYNA1 (11749810_s_at) / Fold change /veh ISYNA1 (11749810_s_at) / RFU ACY1 (11761880_at) / Fold change /veh ACY1 (11761880_at) / RFU 11764098_at / Fold change /veh 11764098_at / RFU SAMD14 (11745864_x_at) / Fold change /veh SAMD14 (11745864_x_at) / RFU NPB (11741838_a_at) / Fold change /veh NPB (11741838_a_at) / RFU TMPRSS6 (11731388_a_at) / Fold change /veh TMPRSS6 (11731388_a_at) / RFU KRTAP10-2 (11738614_at) / Fold change /veh KRTAP10-2 (11738614_at) / RFU ARHGAP8 /// PRR5-ARHGAP8 (11727945_x_at) / Fold change /veh ARHGAP8 /// PRR5-ARHGAP8 (11727945_x_at) / RFU KRTAP5-7 /// NADSYN1 (11734609_at) / Fold change /veh KRTAP5-7 /// NADSYN1 (11734609_at) / RFU RASL12 (11751679_a_at) / Fold change /veh RASL12 (11751679_a_at) / RFU CDKN2B (11736163_a_at) / Fold change /veh CDKN2B (11736163_a_at) / RFU PRF1 (11729649_at) / Fold change /veh PRF1 (11729649_at) / RFU, ZNF638 /// ZNF638-IT1 / Fold change vs veh, ZNF638 /// ZNF638-IT1 / RFU, PANK3 / Fold change vs veh, PANK3 / RFU, SH3YL1 / Fold change vs veh, SH3YL1 / RFU, ZEB2 / Fold change vs veh, ZEB2 / RFU, NRIP1 / Fold change vs veh, NRIP1 / RFU, PTTG1IP / Fold change vs veh, PTTG1IP / RFU, CAPN2 / Fold change vs veh, CAPN2 / RFU, MED14 / Fold change vs veh, MED14 / RFU, SNORA58 / Fold change vs veh, SNORA58 / RFU, C1orf63 / Fold change vs veh, C1orf63 / RFU, LRRFIP1 / Fold change vs veh, LRRFIP1 / RFU, NDUFAF7 / Fold change vs veh, NDUFAF7 / RFU, SLC12A2 / Fold change vs veh, SLC12A2 / RFU, IBTK / Fold change vs veh, IBTK / RFU, ESF1 / Fold change vs veh, ESF1 / Fold change vs veh, TMEM50B / RFU, TAOK1 / Fold change vs veh, TAOK1 / RFU, ACBD3 / Fold change vs veh, ACBD3 / RFU, TMA16 / Fold change vs veh, TMA16 / RFU, RWDD3 / Fold change vs veh, RWDD3 / RFU, BCAT1 / Fold change vs veh, BCAT1 / RFU, EDEM3 / Fold change vs veh, EDEM3 / RFU, TMEM33 / Fold change vs veh, TMEM33 / RFU, WDR75 / Fold change vs veh, WDR75 / RFU, AHCTF1 / Fold change vs veh, AHCTF1 / RFU, TFRC / Fold change vs veh, TFRC / RFU, ZDHHC17 / Fold change vs veh, ZDHHC17 / RFU, NOM1 / Fold change vs veh, NOM1 / RFU, ARL8B / Fold change vs veh, ARL8B / RFU, ZBTB11 / Fold change vs veh, ZBTB11 / RFU, TAMM41 / Fold change vs veh, TAMM41 / RFU, KIAA1704 /// LOC100996395 / Fold change vs veh, KIAA1704 /// LOC100996395 / RFU, ING1 / Fold change vs veh, ING1 / RFU, TRMT61B / Fold change vs veh, TRMT61B / RFU, FUBP3 / Fold change vs veh, FUBP3 / RFU, TP53 / Fold change vs veh, TP53 / RFU, TNKS2 / Fold change vs veh, TNKS2 / RFU, ZFP14 / Fold change vs veh, ZFP14 / RFU, ACTR2 / Fold change vs veh, ACTR2 / RFU, PPP3R1 / Fold change vs veh, PPP3R1 / RFU, PIK3R1 / Fold change vs veh, PIK3R1 / RFU, HNRNPA1 / Fold change vs veh, HNRNPA1 / RFU, RNF170 / Fold change vs veh, RNF170 / RFU, ZNF28 / Fold change vs veh, ZNF28 / RFU, RNGTT / Fold change vs veh, RNGTT / RFU, OGT / Fold change vs veh, OGT / RFU, BRD1 / Fold change vs veh, BRD1 / RFU, MARS / Fold change vs veh, MARS / RFU, ZNF655 / Fold change vs veh, ZNF655 / RFU, FAHD1 / Fold change vs veh, FAHD1 / RFU, BDP1 / Fold change vs veh, BDP1 / RFU, LRRCC1 / Fold change vs veh, LRRCC1 / RFU, ARID1A / Fold change vs veh, ARID1A / RFU, ZNF146 / Fold change vs veh, ZNF146 / RFU, ZNF330 / Fold change vs veh, ZNF330 / RFU, GPN3 / Fold change vs veh, GPN3 / RFU, C9orf123 / Fold change vs veh, C9orf123 / RFU, N4BP2L2 / Fold change vs veh, N4BP2L2 / RFU, ARFIP1 / Fold change vs veh, ARFIP1 / RFU, FAM179B / Fold change vs veh, FAM179B / RFU, BCL10 / Fold change vs veh, BCL10 / RFU, UHRF1BP1L / Fold change vs veh, UHRF1BP1L / RFU, BET1 / Fold change vs veh, BET1 / RFU, CNOT2 / Fold change vs veh, CNOT2 / RFU, ZNF268 / Fold change vs veh, ZNF268 / Fold change vs veh, ZNF507 / RFU, DGCR2 / Fold change vs veh, DGCR2 / RFU, WDSUB1 / Fold change vs veh, WDSUB1 / Fold change vs veh, HSP90B1 /// MIR3652 / RFU, ADSS / Fold change vs veh, ADSS / RFU, GK / Fold change vs veh, GK / RFU, ZNF148 / Fold change vs veh, ZNF148 / RFU, TAF9 / Fold change vs veh, TAF9 / RFU, SLC1A5 / Fold change vs veh, SLC1A5 / RFU, SLMO2 / Fold change vs veh, SLMO2 / RFU, ABCC4 / Fold change vs veh, ABCC4 / RFU, LOC101060439 /// RAP1B / Fold change vs veh, LOC101060439 /// RAP1B / RFU, RFX7 / Fold change vs veh, RFX7 / RFU, GTPBP10 / Fold change vs veh, GTPBP10 / RFU, CNEP1R1 / Fold change vs veh, CNEP1R1 / RFU, BIVM-ERCC5 /// ERCC5 / Fold change vs veh, BIVM-ERCC5 /// ERCC5 / RFU, ILF3 / Fold change vs veh, ILF3 / RFU 11762660_at / Fold change /veh 11762660_at / RFU VCAN (11757783_s_at) / Fold change /veh VCAN (11757783_s_at) / RFU DDX43 (11728927_at) / Fold change /veh DDX43 (11728927_at) / RFU KRT8 (11758188_x_at) / Fold change /veh KRT8 (11758188_x_at) / RFU NKD1 (11759106_at) / Fold change /veh NKD1 (11759106_at) / RFU SRD5A1 (11742802_a_at) / Fold change /veh SRD5A1 (11742802_a_at) / RFU TPSAB1 /// TPSB2 (11721975_s_at) / Fold change /veh TPSAB1 /// TPSB2 (11721975_s_at) / RFU GSTM3 (11746129_a_at) / Fold change /veh GSTM3 (11746129_a_at) / RFU IL23R (11737362_x_at) / Fold change /veh IL23R (11737362_x_at) / RFU TMEM51 (11727254_a_at) / Fold change /veh TMEM51 (11727254_a_at) / RFU PIWIL2 (11732686_x_at) / Fold change /veh PIWIL2 (11732686_x_at) / RFU ORM1 (11744905_x_at) / Fold change /veh ORM1 (11744905_x_at) / RFU CCDC152 (11743942_at) / Fold change /veh CCDC152 (11743942_at) / RFU ECM1 (11717891_a_at) / Fold change /veh ECM1 (11717891_a_at) / RFU IL23R (11748794_a_at) / Fold change /veh IL23R (11748794_a_at) / RFU TNFAIP8L3 (11732012_x_at) / Fold change /veh TNFAIP8L3 (11732012_x_at) / RFU MBOAT4 (11741988_at) / Fold change /veh MBOAT4 (11741988_at) / RFU 11764193_at / Fold change /veh 11764193_at / RFU TMEM53 (11763286_at) / Fold change /veh TMEM53 (11763286_at) / RFU MAGEB2 (11727129_at) / Fold change /veh MAGEB2 (11727129_at) / RFU TMEM200A (11744735_a_at) / Fold change /veh TMEM200A (11744735_a_at) / RFU CCDC152 (11751479_a_at) / Fold change /veh CCDC152 (11751479_a_at) / RFU FAM211A (11726209_a_at) / Fold change /veh FAM211A (11726209_a_at) / RFU RGS16 (11746705_a_at) / Fold change /veh RGS16 (11746705_a_at) / RFU VCAN (11755009_s_at) / Fold change /veh VCAN (11755009_s_at) / RFU RHOB (11743442_s_at) / Fold change /veh RHOB (11743442_s_at) / RFU RGS16 (11720943_a_at) / Fold change /veh RGS16 (11720943_a_at) / RFU RGS16 (11720944_at) / Fold change /veh RGS16 (11720944_at) / RFU, VPS4B / Fold change vs veh, VPS4B / RFU, CREB1 / Fold change vs veh, CREB1 / RFU, DNAJC13 / Fold change vs veh, DNAJC13 / RFU, GNAQ / Fold change vs veh, GNAQ / RFU, CDK5R1 / Fold change vs veh, CDK5R1 / RFU, ZRANB3 / Fold change vs veh, ZRANB3 / RFU, CUL4A / Fold change vs veh, CUL4A / RFU, CCNY / Fold change vs veh, CCNY / RFU, UFL1 / Fold change vs veh, UFL1 / RFU, COG3 / Fold change vs veh, COG3 / RFU, DIAPH2 / Fold change vs veh, DIAPH2 / RFU, SKA2 / Fold change vs veh, SKA2 / RFU, AFF3 / Fold change vs veh, AFF3 / RFU, LMF1 / Fold change vs veh, LMF1 / RFU, IPO11 / Fold change vs veh, IPO11 / RFU, DFFB / Fold change vs veh, DFFB / RFU, FOXP1 / Fold change vs veh, FOXP1 / RFU, CARD8 / Fold change vs veh, CARD8 / RFU, STRN3 / Fold change vs veh, STRN3 / RFU, ADK / Fold change vs veh, ADK / RFU, RASSF2 / Fold change vs veh, RASSF2 / RFU, WIPF1 / Fold change vs veh, WIPF1 / RFU, LARP1B / Fold change vs veh, LARP1B / RFU, RASA1 / Fold change vs veh, RASA1 / RFU, RB1 / Fold change vs veh, RB1 / RFU, PPFIA1 / Fold change vs veh, PPFIA1 / RFU, MAT2A / Fold change vs veh, MAT2A / RFU, CCT5 / Fold change vs veh, CCT5 / RFU, WDR92 / Fold change vs veh, WDR92 / RFU, CUX1 / Fold change vs veh, CUX1 / RFU, TTC7A / Fold change vs veh, TTC7A / RFU, TMEM135 / Fold change vs veh, TMEM135 / RFU, DEPTOR / Fold change vs veh, DEPTOR / RFU, CPM / Fold change vs veh, CPM / RFU, DNAJB6 / Fold change vs veh, DNAJB6 / RFU, CACNA2D3 / Fold change vs veh, CACNA2D3 / RFU, DTX4 / Fold change vs veh, DTX4 / RFU, TFCP2 / Fold change vs veh, TFCP2 / RFU, GMCL1 /// GMCL1P1 / Fold change vs veh, GMCL1 /// GMCL1P1 / RFU, AEBP2 / Fold change vs veh, AEBP2 / RFU, SNHG1 /// SNORD22 /// SNORD25 /// SNORD26 /// SNORD27 /// SNORD28 /// SNORD29 /// SNORD31 / Fold change vs veh, SNHG1 /// SNORD22 /// SNORD25 /// SNORD26 /// SNORD27 /// SNORD28 /// SNORD29 /// SNORD31 / Fold change (Aza/veh), C12orf56 (ProbeSet 11735607_a_at) / Fold change (ACY-1035/veh), C12orf56 (ProbeSet 11735607_a_at) / Fold change (Aza/veh), FGFR1OP (ProbeSet 11751329_s_at) / Fold change (ACY-1035/veh), FGFR1OP (ProbeSet 11751329_s_at) / Fold change (Aza/veh), VPS36 (ProbeSet 11739960_a_at) / Fold change (ACY-1035/veh), VPS36 (ProbeSet 11739960_a_at) / RFU SYPL1 (11715823_x_at) / Fold change /veh SYPL1 (11715823_x_at) / RFU IGFBP7 (11715501_s_at) / Fold change /veh IGFBP7 (11715501_s_at) / RFU REEP3 (11722064_at) / Fold change /veh REEP3 (11722064_at) / RFU IGLL1 (11728026_x_at) / Fold change /veh IGLL1 (11728026_x_at): dose or concentration left out as unconfirmed
Settings: MV-4-11 cells, 48 hours

Nc1ncn([C@@H]2O[C@H](CO)[C@@H](O)[C@H]2O)c(=O)n1 [azacitidine]
Fold change /veh IL23R (11748794_a_at): 1.48
